Measured values published in US9447120B2, “Crystalline forms of zinc trisodium pentetic acid” (Hameln Pharma Plus GmbH, priority 2013, dated 2016).

What was measured:
[1] = Determination of the hygroscopicity (weight increase in a stability chamber); type: physicochemical
Experimental: Here, the samples used were each subjected to the same pre-drying process (cf. Examples 3 and 4). The samples were exposed in each case for the time period stated in the Table at 25° C. and an air humidity of 65% relative air humidity.
The hygroscopicity of Zn-DTPA was checked by measuring the weight increase in a controlled environment. At air temperature (25±2°) C. and (60±5)% air humidity in a stability chamber (Thermo TEC), the weights of two samples (5.000 g) in each case were checked (Analytical balance, XS 205, Mettler Toledo). The weight was checked after 1, 2, 4, 6, 8, 24 and 48 hours.

[2] = lyophilized powder, over 24 h; cited from earlier work
[3] = Table 6, time 1 h, 25° C., 65% relative air humidity
[4] = Table 6, time 2 h, 25° C., 65% relative air humidity
[5] = Table 6, time 4 h, 25° C., 65% relative air humidity
[6] = Table 6, time 6 h, 25° C., 65% relative air humidity
[7] = Table 6, time 8 h, 25° C., 65% relative air humidity
[8] = Table 6, time 24 h, 25° C., 65% relative air humidity
[9] = Table 6, time 48 h, 25° C., 65% relative air humidity

SMILES	Mean mass increase [1, 3]	Mean mass increase [1, 4]	Mean mass increase [1, 5]	Mean mass increase [1, 6]	Mean mass increase [1, 7]	Mean mass increase [1, 8]	Mean mass increase [1, 9]	also measured
O=C([O-])CN(CCN(CC(=O)[O-])CC(=O)[O-])CCN(CC(=O)[O-])CC(=O)[O-].[Na+].[Na+].[Na+].[Zn+2] [Amorph I, trisodium zinc diethylenetriaminepentaacetate]	0.51%	0.89%	1.56%	2.35%	2.95%	7.38%	11.92%	Mean mass increase ([1]; Table 1, time 1 h, product obtained by prior-art route, listed as Batch 1): 0.51%; Mean mass increase ([1]; Table 1, time 2 h, product obtained by prior-art route, listed as Batch 1): 0.89%; Mean mass increase ([1]; Table 1, time 4 h, product obtained by prior-art route, listed as Batch 1): 1.56%; Mean mass increase ([1]; Table 1, time 6 h, product obtained by prior-art route, listed as Batch 1): 2.35%; Mean mass increase ([1]; Table 1, time 8 h, product obtained by prior-art route, listed as Batch 1): 2.95%; Mean mass increase ([1]; Table 1, time 24 h, product obtained by prior-art route, listed as Batch 1): 7.38%; Mean mass increase ([1]; Table 1, time 48 h, product obtained by prior-art route, listed as Batch 1): 11.92%
O=C([O-])CN(CCN(CC(=O)[O-])CC(=O)[O-])CCN(CC(=O)[O-])CC(=O)[O-].[Na+].[Na+].[Na+].[Zn+2] [Form II, B, trisodium zinc diethylenetriaminepentaacetate]	0.41%	0.72%	1.29%	1.97%	2.43%	5.18%	5.25%	
O=C([O-])CN(CCN(CC(=O)[O-])CC(=O)[O-])CCN(CC(=O)[O-])CC(=O)[O-].[Na+].[Na+].[Na+].[Zn+2] [Zn-DTPA, trisodium zinc diethylenetriaminepentaacetate]								water absorbed [2]: more than 10 % by weight
O=C([O-])CN(CCN(CC(=O)[O-])CC(=O)[O-])CCN(CC(=O)[O-])CC(=O)[O-].[Na+].[Na+].[Na+].[Zn+2] [conventional Zn-DTPA, trisodium zinc diethylenetriaminepentaacetate]								behaviour due to hygroscopy ([1]; sufficiently long exposure to air humidity): deliquesces

Second part, led by results:

Mean mass increase [1, 3]	Mean mass increase [1, 4]	Mean mass increase [1, 5]	Mean mass increase [1, 6]	Mean mass increase [1, 7]	Mean mass increase [1, 8]	Mean mass increase [1, 9]	SMILES	also measured
0.56%	0.97%	1.73%	2.61%	3.26%	7.82%	12.02%	O=C([O-])CN(CCN(CC(=O)[O-])CC(=O)[O-])CCN(CC(=O)[O-])CC(=O)[O-].[Na+].[Na+].[Na+].[Zn+2] [Amorph Il, trisodium zinc diethylenetriaminepentaacetate]	Mean mass increase ([1]; Table 1, time 1 h, product obtained by prior-art route, listed as Batch 2): 0.56%; Mean mass increase ([1]; Table 1, time 2 h, product obtained by prior-art route, listed as Batch 2): 0.97%; Mean mass increase ([1]; Table 1, time 4 h, product obtained by prior-art route, listed as Batch 2): 1.73%; Mean mass increase ([1]; Table 1, time 6 h, product obtained by prior-art route, listed as Batch 2): 2.61%; Mean mass increase ([1]; Table 1, time 8 h, product obtained by prior-art route, listed as Batch 2): 3.26%; Mean mass increase ([1]; Table 1, time 24 h, product obtained by prior-art route, listed as Batch 2): 7.82%; Mean mass increase ([1]; Table 1, time 48 h, product obtained by prior-art route, listed as Batch 2): 12.02%
0.32%	0.54%	0.92%	1.34%	1.64%	3.91%	6.81%	O=C([O-])CN(CCN(CC(=O)[O-])CC(=O)[O-])CCN(CC(=O)[O-])CC(=O)[O-].[Na+].[Na+].[Na+].[Zn+2] [Form I, trisodium zinc diethylenetriaminepentaacetate]	
0.34%	0.57%	1.00%	1.49%	1.84%	4.42%	5.07%	O=C([O-])CN(CCN(CC(=O)[O-])CC(=O)[O-])CCN(CC(=O)[O-])CC(=O)[O-].[Na+].[Na+].[Na+].[Zn+2] [Form II, A, trisodium zinc diethylenetriaminepentaacetate]	
